Laboratory results as given in US7576204B2, “Heterocyclic macrolide pharmaceutical agent, a method of producing the same and use of the same” (priority 2002, dated 2009).

How the values were obtained:
[1] = tested on: WiDr human colon cancer cells; experiment: Action of inhibiting proliferation of WiDr human colon cancer cells (MTT); format: cell-based; details: 72 h, three days culture, read-out: WiDr human colon cancer cell proliferation inhibitory activity (IC50: nM)
Protocol: 2×10^3 cells/well of WiDr human colon cancer cells cultured in a Dulbecco's modified Eagle's medium containing 10% fetal bovine serum, penicillin (100 units/mL) and streptomycin (100 μg/mL) (DMEM, manufactured by Sigma Co.) were plated in a 96-well plate. The cells were cultured in a CO2 incubator overnight, and 20 μL of the above-described culture solution containing the test compound at threefold serial dilutions was added for culturing the cells. After three days, 50 μL of a 3.3 mg/mL MTT solution was added, and the cells were further cultured for one hour. Then, formazan generated by reduction by living cells was extracted with 100 μL of DMSO to measure the absorbance (A540/A660), which was used as an index of the number of living cells.
The concentration for inhibiting 50% of proliferation of WiDr human colon cancer cells (IC50 value) of the compound of the formula (I) was determined.

VEGF promoter = experiment: VEGF transcription inhibitory activity, VEGF-PLAP reporter in U251/1-8 cells under hypoxic conditions; format: cell-based; details: Homo sapiens, U-251, hypoxic (2% O2) incubator 18 hours, PLAP activity in culture supernatant
Excerpt: In order to prepare a reporter system in which transcription from a VEGF promoter is reflected, a VEGF promoter sequence was cloned and inserted into a placental alkaline phosphatase (PLAP) vector to construct a reporter vector.
In order to obtain a promoter region of human VEGF, a VEGF genome was cloned from a phage library. Based on VEGF cDNA (GenBank accession number: X62568), a PCR primer with the sequence described as SEQ ID NO: 1 or SEQ ID NO: 2 was designed and used for conducting PCR, thereby obtaining a fragment of about 340 bp. A human genomic phage library (human genomic library, Clontech) was screened using this fragment as a probe to obtain pUC18-VEGFA containing a VEGF 5′-flanking region of about 5.4 kb. This pUC18-VEGFA was cut with Kpn I/Nhe I to obtain a VEGF promoter region of about 2.3 kb, and the region was inserted into the multicloning site Kpn I/Nhe I of the placental alkaline phosphatase (PLAP) reporter vector (Goto et al., Mol. Pharmacol., 49, 860-873, 1996) to construct a VEGF-PLAP vector.
The above-described VEGF-PLAP vector was introduced into U251 cells cultured in a Dulbecco's modified Eagle's medium containing 10% fetal bovine serum (DMEM, manufactured by Sigma Co.), and cultured in the presence of 1 mg/ml G418 (Merck & Co., Inc.) to establish a G418-resistant stable clone (U251/1-8 cells).
As in a report by Minchenko et al. (Cell. Mol. Biol. Res., 40, 35-39, 1994), U251/1-8 cells were confirmed to be a reporter system which secretes PLAP into a culture medium under hypoxic conditions (2% O2 incubator), and in which transcription from a VEGF promoter is reflected. […]
The cells were cultured in a CO2 incubator (5% CO2) at 37° C. overnight, and 20 μl of the above-described culture solution containing the test compound at threefold serial dilutions was added. […] After the reaction for one hour, chemiluminescence was detected using a microplate reader (PerkinElmer) to measure the PLAP activity as the alkaline phosphatase activity. […] The IC50 values of compounds of the formula (I) were determined.

[2] = Stability in an aqueous solution
[3] = tested on: P388 mouse leukemia cells; details: RPM-1640 culture medium; cited from earlier work
[4] = tested on: HL-60 human leukemia cells; details: RPM-1640 culture medium; cited from earlier work
[5] = tested on: L-1210 mouse leukemia cells; details: RPM-1640 culture medium; cited from earlier work
[6] = tested on: P388 mouse leukemia cells; details: in vivo experiment using P388 mouse leukemia cells; cited from earlier work

Structure (SMILES)	IC50 [1] [nM]	IC50 (VEGF promoter) [nM]	Stability in an aqueous solution [2]	Cytotoxic activity in vitro [3]	Cytotoxic activity in vitro [4]	Cytotoxic activity in vitro [5]	Antitumor activity in vivo [6]
CCC(OC(=O)Nc1ccccc1)C(C)C1OC1CC(C)/C=C/C=C(\C)C1OC(=O)CC(O)CCC(C)(O)C(OC(=O)N2CCN(C)CC2)/C=C/C1C (centres unmarked) [Example 3, (8E,12E,14E)-3,6-dihydroxy-6,10,12,16,20-pentamethyl-7-((4-methylpiperazin-1-yl)carbonyl)oxy-21-(N-phenylcarbamoyloxy)-18,19-epoxytricosa-8,12,14-trien-11-olide]	4.8	11.8					
CCC(OC(=O)c1ccccc1)C(C)C1OC1CC(C)/C=C/C=C(\C)C1OC(=O)CC(O)CCC(C)(O)C(OC(=O)N2CCN(C)CC2)/C=C/C1C (centres unmarked) [Example 1, (8E,12E,14E)-21-benzoyloxy-3,6-dihydroxy-6,10,12,16,20-pentamethyl-7-((4-methylpiperazin-1-yl)carbonyl)oxy-18,19-epoxytricosa-8,12,14-trien-11-olide]	5.9	20.7					
CCC(OC(=O)N(C)C)C(C)C1OC1CC(C)/C=C/C=C(\C)C1OC(=O)CC(O)CCC(C)(O)C(OC(=O)N2CCN(C)CC2)/C=C/C1C (centres unmarked) [Example 2, (8E,12E,14E)-21-(N,N-dimethylcarbamoyloxy)-3,6-dihydroxy-6,10,12,16,20-pentamethyl-7-((4-methylpiperazin-1-yl)carbonyl)oxy-18,19-epoxytricosa-8,12,14-trien-11-olide]	2.4	4.2					
CCC(OC)C(C)C1OC1C(O)C(C)/C=C/C=C(\C)C1OC(=O)CC(O)CCC(C)(O)C(OC(C)=O)/C=C/C1C (centres unmarked) [FD-895]			instable in an aqueous solution	has cytotoxic activity in vitro	has cytotoxic activity in vitro	has cytotoxic activity in vitro	did not show antitumor activity
